Source: EP4778933A1 (Chengdu Hyperway Pharmaceuticals Co., Ltd., priority 2023, dated 2025)

How the values were obtained:
[1] = tested on: KRAS G12V-mediated ERK phosphorylation; test: Inhibition of KRAS G12V-mediated ERK phosphorylation in SW480 cells; format: cell-based; conditions: Homo sapiens, SW480, 3 h, 3 h incubation, read-out: Inhibitory activity on ERK phosphorylation (IC50) SW480-G12V
Experimental: (§1) Day 1: AGS cells, SW480 cells, NCI H358 cells, HCT116 cells, and KP2 cells were seeded into 384-well cell culture plates and cultured overnight in a 37°C, 5% CO2 incubator.
(§2) Day 2: The compounds were added to the plates using Echo550 and incubated for 3 h in a 37°C, 5% CO2 incubator. Then, cells fixed with paraformaldehyde, permeated with methanol and blocked with a blocking solution were added. Finally, a mixed solution of primary antibodies (rabbit anti pERK, mouse anti GAPDH) was added, and the mixture was incubated overnight at 4°C.
(§3) Day 3: The mixed solution of primary antibodies was discarded, and a mixed solution of secondary antibodies (goat anti rabbit 800 CW, goat anti mouse 680 RD) was added. The resulting mixture was incubated at room temperature in the dark. Finally, the cell culture plate was washed with PBST, and then inverted for 1 minute of centrifugation. The fluorescence signal values were read with Odyssey CLx.
(§4) ERK phosphorylation was calculated according to the following formula: [formula] • Negative control: DMSO • Positive control: 10 µM Reference • IC50 value was fitted and calculated by XLFit 5.0 using the parametric formula. • Y = Bottom+(Top-Bottom)/(1+10^((LogIC50-X)*HillSlope)) • X: log value of compound concentration. • Y: average value of relative expression of p-ERK between replicate wells.

[2] = In vivo pharmacokinetic test in rats; design: species or system SD Rats; conditions: Sprague-Dawley (SD), rat; male rats, oral, single dose 30 mg/kg, plasma
Experimental: Each test compound was administered orally once to male […] rats for pharmacokinetic study. The test compounds were prepared on the day of administration. The intravenous administration solvent: 5% DMSO + 10% solutol + 85% saline; and the oral administration solvent: 50 mM sodium citrate (pH 5.0) + 10% captisol. The oral administration was conducted in a dose of 30 mg/kg. The animals were fasted for 10-14 h before oral administration, and the feeding was resumed 4 h after administration. Pharmacokinetic samples were collected through the orbit. The collection time points were: 5 min (intravenous administration), 15 min, 30 min, 1 h, 2 h, 4 h, 6 h, 8 h and 24 h after administration. Three whole blood samples were collected at each time point, with a collection volume of about 0.2 mL, and anticoagulated with sodium heparin. After blood samples were collected, they were immediately placed on ice and centrifuged within 1 h to isolate plasma (centrifugation conditions: 8000 rpm, 1 min, 2-8°C). The collected plasma was stored in a -20°C refrigerator before analysis. The concentrations of compounds in the plasma samples were determined using an LC-MS/MS analysis method. Table 4: Pharmacokinetic test results of some compounds in SD Rats

GP2D (KRASG12D) = test: 3D cell proliferation inhibition test (CellTiter-Glo 3D, 7 days), GP2D; format: cell-based; conditions: 168 h, read-out: Inhibitory activity on cell proliferation (IC50) GP2D (KRASG12D)
Experimental: (§5) The diluted compounds to be tested were added to 384-well low-adhesion KRAS mutant types (such as GP2D, NCI H358, LoVo, RKN and KP2) of cell culture plates by using a nanoliter pipetting system (LABCYTE, P-0200). Then, the cells were plated and incubated in a 37°C, 5% CO2 incubator for 7 days. Afterward, CellTiter-Glo® 3D reagent was added, and the luminescent values were read by an Envision multifunctional microplate reader (the luminescent signal is proportional to the amount of ATP in the system, and the ATP content directly represents the number of viable cells in the system). Finally, the IC50 values (half-maximal inhibitory concentration) of the compounds were obtained by the XLFIT software using the nonlinear fitting formula.
(§6) • a) The diluted compounds to be tested were added to 384-well low-adhesion KRAS mutant types of cell culture plates by using a nanoliter pipetting system. • b) Cells were seeded into the 384-well plates in a) and then centrifuged at 1000 rpm for 1 min at room temperature, with a final DMSO concentration of compound being 0.5%. The plates were then incubated in a 5% CO2 constant-temperature incubator at 37°C for 7 days. • c) CellTiter-Glo® 3D was added to the 384-well cell culture plates in b), shaken in the dark, and incubated at room temperature. • d) The luminescence values were read by using an Envision multifunctional microplate reader.
(§7) The IC50 (half-maximal inhibitory concentration) values of the compounds were obtained by using XLFIT software according to the following nonlinear fitting formula: Y = Bottom + (Top−Bottom)/(1+10^(∧)((LogIC50−X)×HillSlope)) [formula] • X: log value of compound concentration. • Y: inhibition rate (%) [formula] • Negative control: DMSO. • Positive control: Medium only.

[3] = tested on: KRAS G13D-mediated ERK phosphorylation; test: Inhibition of KRAS G13D-mediated ERK phosphorylation in HCT116 cells; format: cell-based; conditions: Homo sapiens, HCT-116, 3 h incubation, read-out: Inhibitory activity on ERK phosphorylation (IC50) HCT116-G13D
Experimental: as §1, §2, §3, §4

[4] = tested on: KRAS G12R-mediated ERK phosphorylation; test: Inhibition of KRAS G12R-mediated ERK phosphorylation in KP2 cells; format: cell-based; conditions: 3 h incubation, read-out: Inhibitory activity on ERK phosphorylation (IC50) KP2-G12R
Experimental: as §1, §2, §3, §4

[5] = tested on: human ovarian cancer RKN mouse xenograft tumors; test: In vivo drug efficacy, RKN subcutaneous xenograft tumor model; design: species or system Balb/c nude mice; conditions: 50 mg/kg, PO
Experimental: A subcutaneous xenograft tumor model of human ovarian cancer RKN (derived from uterine leiomyosarcoma) cells was established in Balb/c nude mice. RKN tumor cells resuspended in Ham's F12 medium were inoculated subcutaneously on the right side of the experimental animals at 5×10^6 + gel/0.1 mL. When the tumor grew to about 150-200 mm^3, 20 animals having relatively uniform tumor volumes were selected for group administration, with a total of 4 groups, 5 animals in each group. On the day of the experiment, the animals were given the corresponding drugs according to the groups. The first group G1 was set as a solvent group, and 50 mM citrate buffer (pH 5.0) + 10% Captisol was given by gavage alone. The second group G2 was given a 50 mM citrate buffer (pH 5.0) + 10% Captisol of compound 21. The third group G3 was given a 50 mM citrate buffer (pH 5.0) + 10% Captisol of compound 26. The fourth group G4 was given a 50mM citrate buffer (pH 5.0) + 10% Captisol of compound 31. Table 7: Study on effect of test substances on animal tumor size in the human ovarian cancer RKN mouse xenograft tumor model
During the experiment, the body weight and tumor size of the animals were measured twice a week, and the clinical symptoms of the animals were observed and recorded every day. Each drug administration was based on the most recent weighing of the animals.
The tumor was measured with a digital vernier caliper to measure the length (a) and width (b). The tumor volume (TV) was calculated using the following formula: TV = a × b^2 /2. [formula]

[6] = tested on: KRAS G12C-mediated ERK phosphorylation; test: Inhibition of KRAS G12C-mediated ERK phosphorylation in NCI H358 cells; format: cell-based; conditions: Homo sapiens, 3 h incubation, read-out: Inhibitory activity on ERK phosphorylation (IC50) NCI H358-G12C
Experimental: as §1, §2, §3, §4

[7] = In vivo pharmacokinetic test in mice; conditions: female BALB/c mice, oral, single dose 30 mg/kg, plasma; 30 mg/kg
[8] = tested on: KRAS G12D-mediated ERK phosphorylation; test: Inhibition of KRAS G12D-mediated ERK phosphorylation in AGS cells (in-cell pERK/GAPDH immunofluorescence); format: cell-based; conditions: AGS cells, 3 h incubation; read-out: Inhibitory activity on ERK phosphorylation (IC50) AGS-G12D
Outline: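 AGS, SW480, NCI H358 and KP2 cells were seeded overnight, then treated with compounds for 3 h at 37°C. After fixation, permeabilization and blocking, pERK and GAPDH were immunostained and read by two-colour infrared fluorescence. The pERK/GAPDH ratio was normalized to DMSO and 10 µM reference controls, and IC50 was fitted with a four-parameter logistic model.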

RKN (KRAS G12V) = test: 3D cell proliferation inhibition test (CellTiter-Glo 3D, 7 days), RKN; format: cell-based; conditions: 168 h, read-out: Inhibitory activity on cell proliferation (IC50) RKN (KRAS G12V)
Experimental: as §5, §6, §7

CC1(O)COCCN(c2nc(OCC34CCCN3C(c3cc(F)c(F)c(F)c3)CC4)nc3c(F)c(-c4cccc5sc(N)c(C#N)c45)c(Cl)cc23)C1 (single isomer, unassigned) [Example 21, 2-amino-4-[6-chloro-8-fluoro-4-(6-hydroxy-6-methyl-1,4-oxazepan-4-yl)-2-({[3-(3,4,5-trifluorophenyl)-2,3,5,6,7,7a-hexahydro-1H-pyrrolizin-7a-yl]methyl}oxy)quinazolin-7-yl]benzo[b]thiophene-3-carbonitrile]
IC50 [1]: 7.8 nM | AUC [2]: 5.29 µg·h/mL | Cmax [2]: 0.866 µg/mL | IC50 (GP2D (KRASG12D)): 4.26 nM | IC50 [3]: 45 nM | IC50 [4]: 146 nM | inhibitory effects on human ovarian cancer RKN mouse xenograft tumors ([5]; BID, 28 days): significant inhibitory effects | Tumor volume inhibition rate (TGI) ([5]; RKN xenograft, BID × 28, day 28): 109% | IC50 [6]: 2.04 nM | AUC [7]: 30.872 µg·h/mL | Cmax [7]: 5.218 µg/mL | IC50 [8]: 4.7 nM | IC50 (RKN (KRAS G12V)): 7.23 nM
